According to US11020419B2, “Use of polyinosinic-polycytidylic acid compositions in treatment of malignant effusion” (BIOSYNGEN PTE, LTD, priority 2016, dated 2021):

Legend:
H22 cells = tested on: H22 cells
Experimental: MPE usually refers to tumors originated from the chest metastasis to the pleural space, which leads to the formation of excessive fluid containing cancerous cells and it accounts for about 50% of all pleural effusions. […] Materials: mice liver cancer cell line line (purchased from CCTCC), BAL/c mice (female, 6-7 weeks old, 18-22 g, SPF, purchased from Wei Tong Li Hua, Beijing). BSG, 2 mg/ml, produced in house. Comparator CTX (cyclophosphamide, 0.2 g, from Baxter Oncology GmbH, batch no. 6D111A). Sodium Chloride for Injection (2.25 g, 250 ml, 0.9%, from Zhejiang Tianrui, pharmaceutica, batch no. 116102506).
Methods: Thaw H22 cells, adjust density to 1×10^7 cells/ml, then inject 3 mice, 0.2 ml each. Collect excessive fluid from the injected mice on after 7 days and adjust cell density to 5×10^5/ml, inject another […] into the peritoneal muscle, 0.2 ml/mouse. Divided the mice randomly into 6 groups of 14 mice each three days post-inoculation, among the 14 mice of each group, 6 will be kept separately for survival study (see Table 4b). Treat mice continuously (grouping detail see Table 4a and 4b).
Observations: 1) record mice behavior and skin/fur glossiness daily, measure body weights every two days; 2) 5 h post-treatment on D6, obtain blood from eye venous plexus until death and separate serum for white blood cell count (at least 20 ul); after obtaining blood, execute mice by cervical dislocation, measure pleural fluid volume and obtain thymus, spleen and lung, record organ weight; 3) record survival status of the rest of mice in Groups A2 to E2, calculate average increase in life span (ILS) using formula=[(ave. survival days of treatment groups/ave. survival days of control group)−1]×100%; 4) calculate rate of MPE suppression (%)=(1−ave. MPE volume of treatment groups/ave. MPE volume of control group)×100%.

S180 cell line = test: Concomitant use of BSG with chemotherapeutic drugs in S180 cell line induced MA (Example 4); type: in vivo, mice; settings: for Ascites Vol.: D12 (2 d post-treatment), 7 days treatment from 4 d post-inoculation
Experimental: Materials: S180 cell line (purchased from CCTCC), female BAL/c mice (6-7 weeks old purchased from Centre of Laboratory Animal for Medical Science, Guangdong), BSG (2 mg/ml, produced in house), DDP (cisplatin, 5 mg/ml, from Jingasu Hansoh Pharma, batch no. 160603), CTX (cyclophosphamide), Sodium Chloride for Injection (2.25 g, 250 ml, 0.9%, from Zhejiang Tianrui, pharmaceutica, batch no. 116102506). Methods: 1. MA induction and propagation in mice: take logarithmic growth phase cells, adjust cell density to 5×10^6/ml, inject mice (i.p., 0.4 ml per animal). Collect MA fluid from mice 7-8 days post inoculation, adjust cell density to 2×10^7/ml and inject another 4 mice (i.p., 0.4 ml per animal). Collect MA fluid again from mice 6-7 days post inoculation, adjust cell density to 5×10^6/ml and inoculate 2×10^6 cells to 48 mice before grouping. 2. Grouping: randomly divide mice 4 d post-inoculation according to body weight into A, B, C, D, E, F groups with 8 mice per group. Treat mice with A. BSG (7.5 mg/kg), B. CTX (50 mg/kg), C. DDP (0.5 mg/kg), D. BSG (7.5 mg/kg)+CTX (50 mg/kg), E. BSG (7.5 mg/kg)+DDP (0.5 mg/kg), F. N.S control for 7 days (Grouping detail see Table 7).
3. Observations: 1) record mice behavior and skin/fur glossiness daily, measure body weights and abdominal girth every two days; 2) 2 d post-treatment (D12), obtain blood from eye venous plexus and separate serum for while blood cell count (at least 20 ul). After obtaining blood, execute mice by cervical dislocation, measure pleural fluid volume and record color of fluid; 3) calculate rate of MPE suppression (%)=(1−ave. MPE volume of treatment groups/ave. MA volume of control group)×100%.

[1] = tested on: mice liver cancer cell line H22; test: BSG in preventing and controlling MA in H22 mouse model (Example 2); type: in vivo; settings: for number of mice with nodules at the 7th day post inoculation: 9 mice each; for No. mice survive through Day 15: 9 mice/group; for ILS (average increase in life span): vs control group
Experimental: Materials: mice liver cancer cell line H22; female mice 6-8 weeks old, 18-22 g. BSG, containing 2 mg/ml PIC, produced in-house; comparator, DDP purchased from Jiangzu Haoseng; negative control normal saline (N.S).
Methods: Thaw H22 cell line, wash before inject intraperitoneally (i.p.) into 2 female BALB/c mice, and wait 10 days for peritoneal fluid accumulation. Draw accumulated fluid on D10, adjust the cell density at 1×10^7/ml. Inject another 54 mice via i.p. route with 0.2 ml of the fluid containing total of 2×10^6 cancerous cells. Pick 18 mice and divide into 2 groups at random 24 h post-inoculation. Each group of mice receives either A. BSG (subcutaneous, s.c. 200 ug/ul) or B. DDP (intraperitoneal, i.p. 20 ug/ul) at dosage set out below as a preventive measure. Treat mice daily for 14 days. The rest of mice were divided into 4 groups at random 5 d post-inoculation, namely C. BSG group (s.c.), D. BSG group (i.p.), E. DDP group (i.p.), and F. control group (s.c., N.S). Treat mice daily for 10 days (grouping detail see table below).
MA volume of treatment groups/ave. MA volume of control group)×100%.

[2] = survival groups, 6 mice each, i.m., BSG 7.5 mg/kg, CTX 30 mg/kg, alone or combined
[3] = BSG 7.5 mg/kg i.m., CTX 50 mg/kg i.m., DDP 0.5 mg/kg i.p., alone or combined
[4] = D12, BSG 7.5 mg/kg i.m., CTX 50 mg/kg i.m., DDP 0.5 mg/kg i.p., alone or combined
[5] = preventive, from 24 h post-inoculation, daily 14 days, BSG 200 ug s.c. (Group A), DDP 20 ug i.p. (Group B)
[6] = treatment from 5 d post-inoculation, daily 10 days, i.p.: BSG 200 ug (Group D), DDP 20 ug (Group E)

## O=P1(N(CCCl)CCCl)NCCCO1 (stereo not shown) [CTX, cyclophosphamide]
H22 cells; BSG high dose 7.5 mg/kg, CTX 30 mg/kg, combined, i.m., FIG. 5
  body weight on D7: lower body weight
H22 cells; CTX 30 mg/kg i.m., FIG. 4
  organ weight post treatment (thymus and spleen): lower average weight of organ
H22 cells; i.m., BSG 7.5 mg/kg, CTX 30 mg/kg, alone or combined
  Ave. survival: 6.00 days
H22 cells; i.m., BSG 7.5 mg/kg, CTX 30 mg/kg, alone or combined, vs control, % only in formula b145
  ILS (average increase in life span): 2.86%
H22 cells; [2]
  No. of Mice D 3: 6
  No. of Mice D 4: 6
  No. of Mice D 5: 4
  No. of Mice D 6: 1
  No. of Mice D 7: 1
  No. of Mice D 8: 0
  No. of Mice D 9: 0
S180 cell line; [3]
  Ascites Vol.: 2.84 mL
S180 cell line; [4]
  MA color recorded: 3 mice with bloody ascites, 4 faintly red and 1 milky color
S180 cell line; D12, BSG 7.5 mg/kg i.m., CTX 50 mg/kg i.m., DDP 0.5 mg/kg i.p., alone or combined, vs N.S control
  MA Suppression: 63.5%

## N.N.[Cl][Pt][Cl] [DDP, cisplatin]
[1]; cell count 2D post-treatment (D15), preventive: BSG 200 ug s.c. (Group A), DDP 20 ug i.p. (Group B)
  average cancerous cells in ascites: 3.17 10^6/ml
[1]; i.p. administration, BSG 200 ug, DDP 20 ug daily, D15
  ascites volume (on average): 1.7 mL
[1]; preventive groups, BSG 200 ug s.c. (Group A, small size nodule), DDP 20 ug i.p. (Group B, medium size nodules)
  number of mice with nodules at the 7th day post inoculation: 6
[1]; [5]
  No. mice survive through Day 15: 6
  Ave. survival: 14.4 days
  ILS (average increase in life span): 72%
[1]; treatment from 5 d, i.p.: BSG 200 ug (Group D), DDP 20 ug (Group E), medium size nodules
  number of mice with nodules at the 7th day post inoculation: 6
[1]; [6]
  No. mice survive through Day 15: 2
  Ave. survival: 12.8 days
  ILS (average increase in life span): 53%
S180 cell line; 8 mice per group, DDP 0.5 mg/kg i.p. (Group C), BSG 7.5 mg/kg + CTX 50 mg/kg (Group D)
  number of mice not alive until D12: 4
S180 cell line; [3]
  Ascites Vol.: 5.63 mL
S180 cell line; [4]
  MA color recorded: bloody ascites with one mouse having milky color
S180 cell line; survived mice, D12, FIG. 7
  tumor burden and MA volume (body weight on D12): largest tumor burden and MA volume
